Patent publication US20120178815A1, “Compositions of (-)-E-10-OH-NT and Methods for Their Synthesis and Use” (Adolor Corporation, priority 2007, published 2012)
Where “and” joins values, the source holds several entries; their conditions need not be identical. Equal values may be shown once. Entries after “also recorded” stand apart in the source; their conditions may differ.

Experiments:
[1] = target: T1, human muscarinic receptor M4 (Homo sapiens, UniProt P08173); test: Muscarinic M4 receptor binding, [3H]4-DAMP; settings: read-out: Affinity for Muscarinic Receptors, M4, Ki
T1 construct: expressed in transfected cells; host or cells: CHO cells (membranes)
T1 sequence (P08173 1-479): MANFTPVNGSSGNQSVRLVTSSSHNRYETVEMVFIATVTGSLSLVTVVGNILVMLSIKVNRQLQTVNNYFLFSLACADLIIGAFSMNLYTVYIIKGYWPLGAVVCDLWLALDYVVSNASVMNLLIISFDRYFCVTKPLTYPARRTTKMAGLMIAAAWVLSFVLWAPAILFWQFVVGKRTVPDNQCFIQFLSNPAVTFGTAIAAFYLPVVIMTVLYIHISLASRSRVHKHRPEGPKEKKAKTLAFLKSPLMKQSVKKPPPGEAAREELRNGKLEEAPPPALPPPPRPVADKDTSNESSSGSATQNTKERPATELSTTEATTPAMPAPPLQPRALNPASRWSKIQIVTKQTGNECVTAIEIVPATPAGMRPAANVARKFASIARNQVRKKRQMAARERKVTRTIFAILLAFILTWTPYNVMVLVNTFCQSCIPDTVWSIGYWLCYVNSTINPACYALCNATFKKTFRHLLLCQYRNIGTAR
Procedure: Protocol. […] Bound radioactivity was determined by scintillation spectroscopy. Non-specific binding was defined as the amount of bound radioligand in the presence of 1.0 μM atropine. Radioligand for the M1 receptor was [^3H]pirenzepine (2 nM). Radioligand for the M2 receptor was [^3H]AF-DX384 (2 nM). Radioligand for the M3, M4, and M5 receptors was [^3H]4-DAMP.

[2] = target: T2, human muscarinic receptor M5 (Homo sapiens, UniProt P08912); test: Muscarinic M5 receptor binding, [3H]4-DAMP; settings: read-out: Affinity for Muscarinic Receptors, M5, Ki
T2 construct: expressed in transfected cells; host or cells: CHO cells (membranes)
T2 sequence (P08912 1-532): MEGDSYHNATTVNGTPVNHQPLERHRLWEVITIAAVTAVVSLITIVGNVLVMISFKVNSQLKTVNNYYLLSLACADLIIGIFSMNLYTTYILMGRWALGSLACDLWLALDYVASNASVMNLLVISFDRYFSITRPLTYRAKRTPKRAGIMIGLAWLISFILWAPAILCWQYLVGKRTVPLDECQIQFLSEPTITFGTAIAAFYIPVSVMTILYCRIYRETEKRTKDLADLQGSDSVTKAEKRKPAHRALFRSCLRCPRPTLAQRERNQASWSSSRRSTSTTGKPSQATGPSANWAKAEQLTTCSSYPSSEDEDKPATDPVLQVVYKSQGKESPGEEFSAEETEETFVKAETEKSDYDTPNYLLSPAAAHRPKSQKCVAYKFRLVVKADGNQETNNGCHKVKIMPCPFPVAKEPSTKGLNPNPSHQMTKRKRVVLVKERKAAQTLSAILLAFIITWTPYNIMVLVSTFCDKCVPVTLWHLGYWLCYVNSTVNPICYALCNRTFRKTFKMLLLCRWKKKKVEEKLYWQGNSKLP
Procedure: Protocol. The affinities of AT, NT (+)-E-10-OH-NT and (−)-E-10-OH-NT for muscarinic receptors M1, M2, M3, M4 and M5 were determined with membranes prepared from CHO cells heterologously expressing the cloned human muscarinic receptors M1, M2, M3, M4 and M5. For the assays, membranes and radiolabelled ligand were incubated with various concentrations of test compounds for 1 hour at 22° C. Bound radioactivity was determined by scintillation spectroscopy. Non-specific binding was defined as the amount of bound radioligand in the presence of 1.0 μM atropine. Radioligand for the M1 receptor was [^3H]pirenzepine (2 nM). Radioligand for the M2 receptor was [^3H]AF-DX384 (2 nM). Radioligand for the M3, M4, and M5 receptors was [^3H]4-DAMP.

α2c adrenergic receptor = target: T3, α2c adrenergic receptor (Homo sapiens, UniProt P18825); test: α2c adrenergic receptor binding, [3H]RX821002; settings: for inhibition at 10 µM: read-out: α2c adrenergic receptor, % inhib. at 10 μM
T3 construct: expressed in transfected cells; host or cells: CHO cells
T3 sequence (P18825 1-462): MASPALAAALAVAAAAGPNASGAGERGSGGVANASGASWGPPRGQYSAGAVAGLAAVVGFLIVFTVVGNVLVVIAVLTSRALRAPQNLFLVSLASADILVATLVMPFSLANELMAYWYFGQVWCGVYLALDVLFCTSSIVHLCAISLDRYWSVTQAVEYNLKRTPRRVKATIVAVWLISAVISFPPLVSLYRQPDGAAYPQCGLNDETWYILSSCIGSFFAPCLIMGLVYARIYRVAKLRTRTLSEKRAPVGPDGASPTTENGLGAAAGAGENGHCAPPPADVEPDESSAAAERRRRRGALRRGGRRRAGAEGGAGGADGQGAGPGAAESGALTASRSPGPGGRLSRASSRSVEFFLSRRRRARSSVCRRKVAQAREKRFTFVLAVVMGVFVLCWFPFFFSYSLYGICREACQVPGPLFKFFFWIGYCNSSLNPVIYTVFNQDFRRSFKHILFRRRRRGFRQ
Procedure: Nonspecific binding was determined in the presence of 100 μM (−)-epinephrine. Bound radioactivity was determined by scintillation spectroscopy.

hERG = hERG (Homo sapiens, UniProt Q12809); test: hERG channel inhibition; type: biochemical; settings: cloned hERG channel α subunit (expression host not stated), 10 μM test compound, read-out: percent inhibition of hERG channels
[3] = tested on: rotarod performance in rats; test: Rat rotarod assay of sedation; type: in vivo; settings: for peak deficit in rotarod performance: 30 mg/kg, i.p., peak at 30 minutes; for ED50 for impairment of rotarod performance: IP
Procedure: Protocol. The rat rotarod assay is commonly used to assess sedation associated with chemical drugs. […] Once the rats were in position, the timers were set to zero and the rotarod switched to accelerating mode. The rotarod accelerated from 4 to 40 rpm over a five-minute interval. The timers automatically turned off when the rats fell from the rotating drum, recording a latency to fall in seconds. […] The performance score was recorded in seconds for each interval. The baseline rotarod performance score was the latency to fall off the rotarod on the third training session. Baselines must have been greater than or equal to 60 seconds duration for the rat to be included in the experiment.

Sequence of hERG (Q12809 whole entry): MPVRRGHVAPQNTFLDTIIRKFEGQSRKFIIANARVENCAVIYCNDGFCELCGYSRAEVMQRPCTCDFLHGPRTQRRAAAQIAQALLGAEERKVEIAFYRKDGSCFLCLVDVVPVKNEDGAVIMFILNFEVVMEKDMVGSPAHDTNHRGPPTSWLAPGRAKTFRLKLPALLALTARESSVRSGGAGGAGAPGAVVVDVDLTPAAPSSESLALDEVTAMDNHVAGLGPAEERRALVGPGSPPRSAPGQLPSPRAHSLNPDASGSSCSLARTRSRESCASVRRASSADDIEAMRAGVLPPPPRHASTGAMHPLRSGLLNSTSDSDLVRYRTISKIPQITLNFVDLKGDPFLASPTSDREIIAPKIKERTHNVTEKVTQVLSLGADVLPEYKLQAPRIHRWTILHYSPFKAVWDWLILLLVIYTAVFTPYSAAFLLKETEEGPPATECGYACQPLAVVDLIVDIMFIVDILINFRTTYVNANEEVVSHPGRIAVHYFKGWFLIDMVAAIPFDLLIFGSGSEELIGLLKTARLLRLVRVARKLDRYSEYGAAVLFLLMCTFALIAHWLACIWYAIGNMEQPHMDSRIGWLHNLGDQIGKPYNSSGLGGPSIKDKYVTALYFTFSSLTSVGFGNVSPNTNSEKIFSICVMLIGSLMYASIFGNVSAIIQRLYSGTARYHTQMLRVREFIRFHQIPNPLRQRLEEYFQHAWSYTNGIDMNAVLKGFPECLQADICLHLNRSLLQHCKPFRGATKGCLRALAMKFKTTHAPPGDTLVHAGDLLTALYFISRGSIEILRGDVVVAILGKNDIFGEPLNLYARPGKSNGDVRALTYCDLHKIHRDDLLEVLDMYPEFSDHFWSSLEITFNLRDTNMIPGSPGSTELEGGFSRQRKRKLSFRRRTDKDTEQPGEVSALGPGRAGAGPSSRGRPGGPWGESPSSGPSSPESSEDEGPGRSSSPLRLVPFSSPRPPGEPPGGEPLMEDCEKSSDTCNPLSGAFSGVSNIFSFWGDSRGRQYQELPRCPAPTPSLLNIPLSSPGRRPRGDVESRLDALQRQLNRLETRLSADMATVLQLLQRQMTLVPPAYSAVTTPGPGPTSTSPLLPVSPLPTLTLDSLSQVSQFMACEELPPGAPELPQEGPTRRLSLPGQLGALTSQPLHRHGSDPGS

Structure (SMILES)	Ki [1] [nM]	Ki [2] [nM]	inhibition at 10 µM (α2c adrenergic receptor) [%]	inhibition at 10 µM (hERG) [%]	impairment of rotarod performance ([3]; 30 mg/kg IP, rats (Example 17)) [%]	peak deficit in rotarod performance ([3]; rats)	ED50 for impairment of rotarod performance ([3]; rats) [mg/kg IP]	Ki (α2c adrenergic receptor; read-out: Affinity at α2c adrenergic receptor, Ki) [nM]	maximal impairment of rotarod performance ([3]; 100 mg/kg IP, rats) [%]
CNCC/C=C1\c2ccccc2C[C@H](O)c2ccccc21 (stereo in doubt) [(+)-E-10-OH-NT]	390	280	35	8.8					
CNCC/C=C1\c2ccccc2C[C@@H](O)c2ccccc21 (stereo in doubt) [(−)-E-10-OH-NT]	170	150	30	6	5	no impairment in rotarod performance; also recorded: no significant impairment in performance; also recorded: no impairment of performance	120		
CN(C)CCC=C1c2ccccc2CCc2ccccc21 [AT, amitriptyline, reference compound]	3.6	3.5				51±20%	27	13	96
CNCCC=C1c2ccccc2CCc2ccccc21 [NT, nortriptyline, reference compound]		15		55.1		60±14% and 60±40%			
